Converted amounts (≈) assume the structure as drawn. Like-named read-outs stand apart in the source and are kept apart here.
System: S. aureus clinical isolates
Experiment: microbe, parasite or virus in culture
Type: cell-based

## CC(=O)NC[C@H]1CN(c2ccc(N3CCOCC3)c(F)c2)C(=O)O1 [Linezolid]
S. aureus ATCC 29213, MSSA / VSSA, test date 2018-10-25 (three repeat lines)
  MIC: 4 µg/mL (≈ 11.9 µM)
Staphylococcus aureus, ATCC 29213 / MSSA, S. aureus ATCC 29213, MSSA / VSSA, test date 2018-10-25 (three repeat lines), read-out: MIC
  MIC: 2 µg/mL (≈ 5.93 µM)
Staphylococcus aureus, ATCC 29213 / MSSA, S. aureus ATCC 29213, MSSA / VSSA, test date 2018-11-07, read-out: MIC
  MIC: 2 µg/mL (≈ 5.93 µM)
Staphylococcus aureus, MRSA / NRS 3 / VISA, S. aureus IHMA 1308243, NRS3, MRSA / VISA, read-out: MIC
  MIC: 1 µg/mL (≈ 2.96 µM)
Staphylococcus aureus, MRSA / NRS 4 / VISA, S. aureus IHMA 649380, NRS4, MRSA / VISA, read-out: MIC
  MIC: 1 µg/mL (≈ 2.96 µM)
Staphylococcus aureus, MRSA / NRS 18 / VISA, S. aureus IHMA 649386, NRS18, MRSA / VISA, read-out: MIC
  MIC: 2 µg/mL (≈ 5.93 µM)
Staphylococcus aureus, MRSA / NRS 19 / VISA, S. aureus IHMA 649387, NRS19, MRSA / VISA, read-out: MIC
  MIC: 0.5 µg/mL (≈ 1.48 µM)
Staphylococcus aureus, MRSA / NRS 21 / VISA, S. aureus IHMA 649388, NRS21, MRSA / VISA, read-out: MIC
  MIC: 1 µg/mL (≈ 2.96 µM)
Staphylococcus aureus, MRSA / NRS 22 / USA600 / VISA, S. aureus IHMA 649389, NRS22, MRSA / VISA, USA600, read-out: MIC
  MIC: 1 µg/mL (≈ 2.96 µM)
Staphylococcus aureus, MRSA / NRS 23 / VISA, S. aureus IHMA 649390, NRS23, MRSA / VISA, read-out: MIC
  MIC: 2 µg/mL (≈ 5.93 µM)
Staphylococcus aureus, MRSA / NRS 24 / VISA, S. aureus IHMA 649391, NRS24, MRSA / VISA, read-out: MIC
  MIC: 1 µg/mL (≈ 2.96 µM)
Staphylococcus aureus, MRSA / NRS 26, S. aureus IHMA 649392, NRS26, MRSA / VSSA, read-out: MIC
  MIC: 1 µg/mL (≈ 2.96 µM)
Staphylococcus aureus, MRSA / NRS 27 / VISA, S. aureus IHMA 1308248, NRS27, MRSA / VISA, read-out: MIC
  MIC: 2 µg/mL (≈ 5.93 µM)
Staphylococcus aureus, MRSA / NRS 29 / VISA, S. aureus IHMA 1308250, NRS29, MRSA / VISA, read-out: MIC
  MIC: 1 µg/mL (≈ 2.96 µM)
Staphylococcus aureus, MRSA / NRS 37 / VISA, S. aureus IHMA 1308251, NRS37, MRSA / VISA, read-out: MIC
  MIC: 1 µg/mL (≈ 2.96 µM)
Staphylococcus aureus, MRSA / NRS 54, S. aureus IHMA 1308253, NRS54, MRSA / VSSA* (*Expected VAN intermediate, confirmed VAN susceptible twice), test date 2018-11-07, read-out: MIC
  MIC: 1 µg/mL (≈ 2.96 µM)
Staphylococcus aureus, MRSA / NRS 56 / VISA, S. aureus IHMA 1308254, NRS56, MRSA / VISA, read-out: MIC
  MIC: 1 µg/mL (≈ 2.96 µM)
Staphylococcus aureus, MRSA / USA100 / VRSA, S. aureus IHMA 672230, VRS1, MRSA / VRSA, USA100, read-out: MIC
  MIC: 1 µg/mL (≈ 2.96 µM)
Staphylococcus aureus, MRSA / USA100 / VRSA, S. aureus IHMA 672231, VRS2, MRSA / VRSA, USA100, read-out: MIC
  MIC: 1 µg/mL (≈ 2.96 µM)
Staphylococcus aureus, MRSA / USA100 / VRSA, S. aureus IHMA 672234, VRS4, MRSA / VRSA, USA100, read-out: MIC
  MIC: 2 µg/mL (≈ 5.93 µM)
Staphylococcus aureus, MRSA / USA100 / VRSA, S. aureus IHMA 672235, VRS5, MRSA / VRSA, USA100, read-out: MIC
  MIC: 2 µg/mL (≈ 5.93 µM)
Staphylococcus aureus, MRSA / USA100 / VRSA, S. aureus IHMA 672237, VRS7, MRSA / VRSA, USA100, read-out: MIC
  MIC: 2 µg/mL (≈ 5.93 µM)
Staphylococcus aureus, MRSA / USA100 / VRSA, S. aureus IHMA 672238, VRS8, MRSA / VRSA, USA100, read-out: MIC
  MIC: 1 µg/mL (≈ 2.96 µM)
Staphylococcus aureus, MRSA / USA100 / VRSA, S. aureus IHMA 672239, VRS9, MRSA / VRSA, USA100, read-out: MIC
  MIC: 1 µg/mL (≈ 2.96 µM)
Staphylococcus aureus, MRSA / USA100 / VRSA, S. aureus IHMA 1308256, VRS10, MRSA / VRSA, USA100, read-out: MIC
  MIC: 4 µg/mL (≈ 11.9 µM)
Staphylococcus aureus, MRSA / USA100 / VRSA, S. aureus IHMA 1308258, VRS11b, MRSA / VRSA, USA100, read-out: MIC
  MIC: 1 µg/mL (≈ 2.96 µM)
Staphylococcus aureus, MRSA / USA800 / VRSA, S. aureus IHMA 672233, VRS3b, MRSA / VRSA, USA800, read-out: MIC
  MIC: 1 µg/mL (≈ 2.96 µM)
Staphylococcus aureus, MRSA, S. aureus IHMA 1569509, MRSA / VSSA, read-out: MIC
  MIC: 4 µg/mL (≈ 11.9 µM)
Staphylococcus aureus, MRSA, S. aureus IHMA 1575268, MRSA / VSSA, read-out: MIC
  MIC: 2 µg/mL (≈ 5.93 µM)
Staphylococcus aureus, MRSA, S. aureus IHMA 1575629, MRSA / VSSA, read-out: MIC
  MIC: 4 µg/mL (≈ 11.9 µM)
Staphylococcus aureus, MRSA, S. aureus IHMA 1577820, MRSA / VSSA, read-out: MIC
  MIC: 2 µg/mL (≈ 5.93 µM)
Staphylococcus aureus, MRSA, S. aureus IHMA 1580300, MRSA / VSSA, read-out: MIC
  MIC: 0.5 µg/mL (≈ 1.48 µM)
Staphylococcus aureus, MRSA, S. aureus IHMA 1580940, MRSA / VSSA, read-out: MIC
  MIC: 2 µg/mL (≈ 5.93 µM)
Staphylococcus aureus, MRSA, S. aureus IHMA 1582100, MRSA / VSSA, read-out: MIC
  MIC: 2 µg/mL (≈ 5.93 µM)
Staphylococcus aureus, MRSA, S. aureus IHMA 1583795, MRSA / VSSA, read-out: MIC
  MIC: 1 µg/mL (≈ 2.96 µM)
Staphylococcus aureus, MRSA, S. aureus IHMA 1584223, MRSA / VSSA, read-out: MIC
  MIC: 4 µg/mL (≈ 11.9 µM)
Staphylococcus aureus, MRSA, S. aureus IHMA 1585316, MRSA / VSSA, read-out: MIC
  MIC: 2 µg/mL (≈ 5.93 µM)
Staphylococcus aureus, MRSA, S. aureus IHMA 1586780, MRSA / VSSA, read-out: MIC
  MIC: 1 µg/mL (≈ 2.96 µM)
Staphylococcus aureus, MRSA, S. aureus IHMA 1587322, MRSA / VSSA, read-out: MIC
  MIC: 2 µg/mL (≈ 5.93 µM)
Staphylococcus aureus, MRSA, S. aureus IHMA 1588127, MRSA / VSSA, read-out: MIC
  MIC: 1 µg/mL (≈ 2.96 µM)
Staphylococcus aureus, MRSA, S. aureus IHMA 1591462, MRSA / VSSA, read-out: MIC
  MIC: 4 µg/mL (≈ 11.9 µM)
Staphylococcus aureus, MRSA, S. aureus IHMA 1592755, MRSA / VSSA, read-out: MIC
  MIC: 2 µg/mL (≈ 5.93 µM)
Staphylococcus aureus, MRSA, S. aureus IHMA 1592776, MRSA / VSSA, read-out: MIC
  MIC: 2 µg/mL (≈ 5.93 µM)
Staphylococcus aureus, MRSA, S. aureus IHMA 1597106, MRSA / VSSA, read-out: MIC
  MIC: 1 µg/mL (≈ 2.96 µM)
Staphylococcus aureus, MRSA, S. aureus IHMA 1602095, MRSA / VSSA, read-out: MIC
  MIC: 4 µg/mL (≈ 11.9 µM)
Staphylococcus aureus, MRSA, S. aureus IHMA 1611170, MRSA / VSSA, read-out: MIC
  MIC: 2 µg/mL (≈ 5.93 µM)
Staphylococcus aureus, MRSA, S. aureus IHMA 1611612, MRSA / VSSA, read-out: MIC
  MIC: 4 µg/mL (≈ 11.9 µM)
Staphylococcus aureus, MRSA, S. aureus IHMA 1612228, MRSA / VSSA, read-out: MIC
  MIC: 2 µg/mL (≈ 5.93 µM)
Staphylococcus aureus, MRSA, S. aureus IHMA 1620441, MRSA / VSSA, read-out: MIC
  MIC: 1 µg/mL (≈ 2.96 µM)

Reference: paper PMC7561186, “Rational design of balanced dual-targeting antibiotics with limited resistance” (PLoS Biology, 2020)
